These results are taken from PMC5856786, “A DHODH inhibitor increases p53 synthesis and enhances tumor cell killing by p53 degradation blockage” (Nature Communications, 2018).

Molecules are shown by their SMILES.

One assay deals with CDK7/CycH/MAT1 (Homo sapiens, UniProt P50613). Nature of the assay: biochemical. To be noted: read-out: HZ00 10 µM Average (% remaining activity). Further details: radiometric 33PanQinase protein kinase activity assay, CDK/cyclin panel, per cent remaining activity. The source says: (§1) Supplementary Table 1. In vitro inhibition (% remaining activity) of cyclin-dependent
(§2) ProQinase GmbH (Freiburg, Germany) using a radiometric protein kinase assay
(§3) (33PanQinase® Activity Assay).
(§4) (1 picture or pasted object on this page, not shown here) 32 Supplementary Table 1. In vitro inhibition (% remaining activity) of cyclin-dependent kinases (CDKs).

For another assay, the target named is CDK6/CycD1 (Homo sapiens, UniProt Q00534). In words: biochemical. Further details: radiometric 33PanQinase protein kinase activity assay, CDK/cyclin panel, per cent remaining activity. The settings on record: read-out: HZ00 10 µM Average (% remaining activity).
Text: as §1, §2, §3, §4

A further assay has as its target T1, CDK5/p35NCK (Homo sapiens, UniProt Q00535).
T1 construct: p35
In words: biochemical. The settings on record: read-out: HZ00 10 µM Average (% remaining activity). Further details: radiometric 33PanQinase protein kinase activity assay, CDK/cyclin panel, per cent remaining activity.
Text: as §1, §2, §3, §4

The next assay has as its target CDK8/CycC (Homo sapiens, UniProt P49336). In words: biochemical. The arrangement: radiometric 33PanQinase protein kinase activity assay, CDK/cyclin panel, per cent remaining activity. The settings on record: read-out: HZ00 10 µM Average (% remaining activity).
Text: as §1, §2, §3, §4

For the next assay, the target named is CDK2/CycA2 (Homo sapiens, UniProt P24941). Nature of the assay: biochemical. The arrangement: radiometric 33PanQinase protein kinase activity assay, CDK/cyclin panel, per cent remaining activity. The settings on record: read-out: HZ00 10 µM Average (% remaining activity).
Text: as §1, §2, §3, §4

A further assay concerns the target T2, CDK5/p25NCK (Homo sapiens, UniProt Q00535).
T2 construct: p25
In words: biochemical. The arrangement: radiometric 33PanQinase protein kinase activity assay, CDK/cyclin panel, per cent remaining activity. To be noted: read-out: HZ00 10 µM Average (% remaining activity).
Text: as §1, §2, §3, §4

Another assay has as its target CDK1/CycB1 (Homo sapiens, UniProt P06493). In words: biochemical. The arrangement: radiometric 33PanQinase protein kinase activity assay, CDK/cyclin panel, per cent remaining activity. The settings on record: read-out: HZ00 10 µM Average (% remaining activity).
Text: as §1, §2, §3, §4

In a further assay the target is CDK2/CycE1 (Homo sapiens, UniProt P24941). Nature of the assay: biochemical. The arrangement: radiometric 33PanQinase protein kinase activity assay, CDK/cyclin panel, per cent remaining activity. The settings on record: read-out: HZ00 10 µM Average (% remaining activity).
Text: as §1, §2, §3, §4

Another assay addresses CDK4/CycD3 (Homo sapiens, UniProt P11802). In words: biochemical. Further details: radiometric 33PanQinase protein kinase activity assay, CDK/cyclin panel, per cent remaining activity. The settings on record: read-out: HZ00 10 µM Average (% remaining activity).
Text: as §1, §2, §3, §4

A further assay deals with T3, PCTAIRE1/CycY (Homo sapiens, UniProt Q00536).
T3 construct: gene CDK16
Nature of the assay: biochemical. The arrangement: radiometric 33PanQinase protein kinase activity assay, CDK/cyclin panel, per cent remaining activity. The settings on record: read-out: HZ00 10 µM Average (% remaining activity).
Text: as §1, §2, §3, §4

In another assay the target is CDK9/CycK (Homo sapiens, UniProt P50750). In words: biochemical. Further details: radiometric 33PanQinase protein kinase activity assay, CDK/cyclin panel, per cent remaining activity. To be noted: read-out: HZ00 10 µM Average (% remaining activity).
Text: as §1, §2, §3, §4

A further assay addresses CDK1/CycA2 (Homo sapiens, UniProt P06493). Nature of the assay: biochemical. Further details: radiometric 33PanQinase protein kinase activity assay, CDK/cyclin panel, per cent remaining activity. The settings on record: read-out: HZ00 10 µM Average (% remaining activity).
Text: as §1, §2, §3, §4

Another assay addresses CDK3/CycE1 (Homo sapiens, UniProt Q00526). Nature of the assay: biochemical. Further details: radiometric 33PanQinase protein kinase activity assay, CDK/cyclin panel, per cent remaining activity. The settings on record: read-out: HZ00 10 µM Average (% remaining activity).
Text: as §1, §2, §3, §4

The next assay addresses CDK1/CycE1 (Homo sapiens, UniProt P06493). Nature of the assay: biochemical. Further details: radiometric 33PanQinase protein kinase activity assay, CDK/cyclin panel, per cent remaining activity. The settings on record: read-out: HZ00 10 µM Average (% remaining activity).
Text: as §1, §2, §3, §4

Another assay has as its target CDK4/CycD1 (Homo sapiens, UniProt P11802). In words: biochemical. To be noted: read-out: HZ00 10 µM Average (% remaining activity). The arrangement: radiometric 33PanQinase protein kinase activity assay, CDK/cyclin panel, per cent remaining activity.
Text: as §1, §2, §3, §4

A further assay has as its system p53-null H1299 cells. In words: p53 reporter (CPRG assay) in p53-null H1299 cells transfected with RGCΔFosLacZ. The format is cell-based. To be noted: H1299, 16 h exposure. The protocol: Supplementary Figure 1. HZ compounds increase the levels of p53-induced mRNAs. a) p53-null H1299 cells were transfected with the RGCΔ FosLacZ reporter construct and levels of p53-dependent transcription were determined by CPRG assay following a 16 h exposure to HZ00. A vector expressing wild-type p53 was used as a positive control. The average of three […]
for 1 hour prior to treatment with 2 µM nutlin-3 for an additional 18 hours. Levels of p53-induced mRNAs and p53 mRNA were determined by q-RT-PCR. tbp was used as a control.
Values correspond to the average of three technical repeats with standard deviation used for error. RNA extraction and q-RT-PCR were performed as previously described - see supplementary information7. c) HCT116 p53 wild-type or p53 deficient cells were treated […]
supplementary information for cell line description8. d) ARN8 cells treated for 6 hours with HZ00 at indicated doses. Levels of p53 mRNA were determined by q-RT-PCR. […]

The test system of assay [1] is p53 levels in S-phase U2OS cells. Nature of the assay: p53-FITC/DNA content flow cytometry. To be noted: HZ05 1 μM, 72 h. The format is cell-based. The protocol:
The upper left panel is a representative dot plot showing the gating strategy for cells expressing high p53 levels (blue: […] DMSO treated). […] A representative histogram of the fluorescence intensity of FITC-p53 in S-phase cells is shown in the lower right panel. Bar graphs show the average of three independent experiments. […] After an additional 48 h, Annexin V and PI staining was analyzed by flow cytometry. […] Inhibition of p53 degradation in the form of an mdm2 antagonist leads to death of cells in S-phase For the detection of p53, cells were treated as indicated and fixed using Fix/Perm buffer solution (eBiosciences). […] Cells were resuspended in FACS buffer (2 mM EDTA, 0.5% BSA) containing 2 μg mL^−1 FxCycle Violet (Thermo Scientific). Stained cells were acquired on LSRII (BD Biosciences) and analyzed using FlowJo software V10.2.

T2 sequence (Q00535 whole entry): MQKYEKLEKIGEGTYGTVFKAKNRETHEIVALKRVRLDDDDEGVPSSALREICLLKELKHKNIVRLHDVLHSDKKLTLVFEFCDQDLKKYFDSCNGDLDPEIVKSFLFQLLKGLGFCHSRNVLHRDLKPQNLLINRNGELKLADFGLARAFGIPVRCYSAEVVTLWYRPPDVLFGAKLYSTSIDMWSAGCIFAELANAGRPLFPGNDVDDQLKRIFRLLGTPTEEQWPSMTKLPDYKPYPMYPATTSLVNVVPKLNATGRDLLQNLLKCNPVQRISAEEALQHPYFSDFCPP
T2 sequence (Q15078 whole entry partner): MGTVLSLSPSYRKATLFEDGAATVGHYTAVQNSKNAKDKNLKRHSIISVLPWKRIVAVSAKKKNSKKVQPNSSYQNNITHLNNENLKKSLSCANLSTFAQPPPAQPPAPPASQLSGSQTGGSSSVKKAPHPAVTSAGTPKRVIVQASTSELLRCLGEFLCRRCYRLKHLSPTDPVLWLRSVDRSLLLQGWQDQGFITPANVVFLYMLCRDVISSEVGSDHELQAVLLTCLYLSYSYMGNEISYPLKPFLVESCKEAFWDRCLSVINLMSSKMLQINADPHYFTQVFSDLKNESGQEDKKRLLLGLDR
T1 sequence (Q00535 whole entry): as the sequence (Q00535 whole entry) above
T1 sequence (Q15078 whole entry partner): as the sequence (Q15078 whole entry partner) above
Sequence of CDK1/CycE1 (P06493 whole entry): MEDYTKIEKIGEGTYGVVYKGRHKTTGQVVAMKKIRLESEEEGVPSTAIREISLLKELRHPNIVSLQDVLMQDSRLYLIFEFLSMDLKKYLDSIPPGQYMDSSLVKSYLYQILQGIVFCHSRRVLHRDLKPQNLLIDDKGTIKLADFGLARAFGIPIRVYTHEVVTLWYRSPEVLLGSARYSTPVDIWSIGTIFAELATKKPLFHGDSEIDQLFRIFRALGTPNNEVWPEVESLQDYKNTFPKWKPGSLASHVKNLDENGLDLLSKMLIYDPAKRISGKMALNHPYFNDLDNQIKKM
Sequence of CDK1/CycE1 (P24864 whole entry partner): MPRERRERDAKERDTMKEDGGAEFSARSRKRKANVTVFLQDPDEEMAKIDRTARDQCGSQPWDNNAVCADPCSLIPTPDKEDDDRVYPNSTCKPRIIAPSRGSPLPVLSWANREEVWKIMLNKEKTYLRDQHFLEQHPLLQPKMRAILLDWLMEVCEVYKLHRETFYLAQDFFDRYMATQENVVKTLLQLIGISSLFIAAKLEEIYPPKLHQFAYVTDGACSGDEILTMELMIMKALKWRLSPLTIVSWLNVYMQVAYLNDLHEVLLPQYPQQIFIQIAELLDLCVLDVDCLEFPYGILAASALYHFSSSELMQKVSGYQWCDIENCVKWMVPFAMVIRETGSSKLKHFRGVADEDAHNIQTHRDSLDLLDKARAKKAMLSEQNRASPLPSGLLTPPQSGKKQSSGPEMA
Sequence of CDK1/CycB1 (P06493 whole entry): as the sequence (P06493 whole entry) above
Sequence of CDK1/CycB1 (P14635 whole entry partner): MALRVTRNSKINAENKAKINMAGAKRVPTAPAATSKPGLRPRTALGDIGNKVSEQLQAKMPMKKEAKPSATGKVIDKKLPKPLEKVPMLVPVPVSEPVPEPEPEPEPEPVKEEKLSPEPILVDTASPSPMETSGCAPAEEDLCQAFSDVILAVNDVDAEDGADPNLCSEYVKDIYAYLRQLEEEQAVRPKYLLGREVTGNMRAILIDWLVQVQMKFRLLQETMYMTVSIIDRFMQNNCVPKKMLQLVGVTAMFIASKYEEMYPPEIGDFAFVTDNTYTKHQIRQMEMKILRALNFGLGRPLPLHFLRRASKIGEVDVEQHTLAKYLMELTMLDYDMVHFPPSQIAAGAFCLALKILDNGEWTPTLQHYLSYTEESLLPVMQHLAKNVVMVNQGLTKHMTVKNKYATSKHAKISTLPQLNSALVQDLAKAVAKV
Sequence of CDK1/CycA2 (P06493 whole entry): as the sequence (P06493 whole entry) above
Sequence of CDK1/CycA2 (P20248 whole entry partner): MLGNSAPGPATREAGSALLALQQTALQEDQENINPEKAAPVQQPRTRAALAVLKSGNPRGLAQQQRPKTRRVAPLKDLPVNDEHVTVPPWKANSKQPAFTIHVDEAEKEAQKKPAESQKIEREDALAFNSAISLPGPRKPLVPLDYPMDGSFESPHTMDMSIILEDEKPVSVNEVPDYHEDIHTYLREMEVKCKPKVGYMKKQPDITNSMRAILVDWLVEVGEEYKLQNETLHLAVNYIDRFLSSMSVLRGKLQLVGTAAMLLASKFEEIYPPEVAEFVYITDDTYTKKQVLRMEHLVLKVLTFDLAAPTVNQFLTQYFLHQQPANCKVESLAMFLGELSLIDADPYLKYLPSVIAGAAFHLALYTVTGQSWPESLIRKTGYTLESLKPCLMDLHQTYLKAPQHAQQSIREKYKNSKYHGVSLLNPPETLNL
Sequence of CDK7/CycH/MAT1 (P50613 whole entry): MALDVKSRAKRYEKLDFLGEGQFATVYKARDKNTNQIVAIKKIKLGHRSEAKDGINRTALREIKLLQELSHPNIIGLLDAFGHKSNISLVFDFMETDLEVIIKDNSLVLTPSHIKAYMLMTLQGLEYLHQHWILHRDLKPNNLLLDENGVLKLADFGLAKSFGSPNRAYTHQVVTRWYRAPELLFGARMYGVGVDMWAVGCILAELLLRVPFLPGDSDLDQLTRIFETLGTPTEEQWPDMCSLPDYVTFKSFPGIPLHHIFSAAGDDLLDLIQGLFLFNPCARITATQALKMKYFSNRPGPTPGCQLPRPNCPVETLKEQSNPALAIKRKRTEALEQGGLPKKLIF
Sequence of CDK7/CycH/MAT1 (P51946 whole entry partner): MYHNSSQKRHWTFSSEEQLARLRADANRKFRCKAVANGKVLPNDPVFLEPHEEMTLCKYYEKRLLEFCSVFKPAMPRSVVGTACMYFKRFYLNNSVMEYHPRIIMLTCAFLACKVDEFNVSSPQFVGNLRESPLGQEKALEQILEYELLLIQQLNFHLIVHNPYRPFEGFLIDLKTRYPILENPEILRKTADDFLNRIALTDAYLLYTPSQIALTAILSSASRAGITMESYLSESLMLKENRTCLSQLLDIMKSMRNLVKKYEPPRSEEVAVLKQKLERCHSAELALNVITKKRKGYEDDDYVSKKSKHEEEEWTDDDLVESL
Sequence of CDK7/CycH/MAT1 (P51948 whole entry partner): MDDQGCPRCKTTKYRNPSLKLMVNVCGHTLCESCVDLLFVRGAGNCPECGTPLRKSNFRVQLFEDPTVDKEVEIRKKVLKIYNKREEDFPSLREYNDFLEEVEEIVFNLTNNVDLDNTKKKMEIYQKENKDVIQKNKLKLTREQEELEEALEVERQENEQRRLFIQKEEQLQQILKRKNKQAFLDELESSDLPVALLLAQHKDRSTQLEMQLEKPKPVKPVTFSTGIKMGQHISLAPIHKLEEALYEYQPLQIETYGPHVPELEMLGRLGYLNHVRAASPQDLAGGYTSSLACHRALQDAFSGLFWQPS
Sequence of CDK6/CycD1 (Q00534 whole entry): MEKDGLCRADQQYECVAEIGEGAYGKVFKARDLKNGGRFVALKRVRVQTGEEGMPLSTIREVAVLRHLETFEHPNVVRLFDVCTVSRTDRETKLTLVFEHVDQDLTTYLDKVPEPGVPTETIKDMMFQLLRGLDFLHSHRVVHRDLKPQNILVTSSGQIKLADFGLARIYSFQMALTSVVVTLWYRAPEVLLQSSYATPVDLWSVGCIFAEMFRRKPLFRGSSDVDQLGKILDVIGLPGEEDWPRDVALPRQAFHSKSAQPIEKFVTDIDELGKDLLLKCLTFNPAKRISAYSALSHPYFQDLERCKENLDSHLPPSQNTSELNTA
Sequence of CDK6/CycD1 (P24385 whole entry partner): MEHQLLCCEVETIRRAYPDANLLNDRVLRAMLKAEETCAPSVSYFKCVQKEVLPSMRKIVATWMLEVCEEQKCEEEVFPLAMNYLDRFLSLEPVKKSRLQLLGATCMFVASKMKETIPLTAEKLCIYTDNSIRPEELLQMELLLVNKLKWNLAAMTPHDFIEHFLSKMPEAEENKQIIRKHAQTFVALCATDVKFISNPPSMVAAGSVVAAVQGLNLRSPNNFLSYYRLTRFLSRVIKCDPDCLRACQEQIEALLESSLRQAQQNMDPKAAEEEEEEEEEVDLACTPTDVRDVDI

As to `O=C(NC1CCCc2c1cnn2-c1ccccc1F)c1ccccn1` (centres unmarked) [HZ00], the remaining activity at 10 µM turned out to be 96.2% on CDK7/CycH/MAT1; 103% on CDK6/CycD1; 105% on CDK5/p35NCK; 95.2% on CDK8/CycC; 96% at CDK2/CycA2; 104% on CDK5/p25NCK. Further, the remaining activity at 10 µM is 104% on CDK1/CycB1; 102% at CDK2/CycE1; 89.2% at CDK4/CycD3; 103% at PCTAIRE1/CycY; 100% at CDK9/CycK; 89.1% at CDK1/CycA2. Moreover, the values for the remaining activity at 10 µM on CDK3/CycE1, on CDK1/CycE1 and at CDK4/CycD1 were 96.6%, 101% and 104%, respectively. Moreover, the “p53-reporter activity in p53-null cells” value in the assay with p53-null H1299 cells is on record as “did not result in p53-reporter activity”.
`O=C(NC1CCCc2c1cnn2-c1ccccc1F)c1onc2c1CCCC2` (centres unmarked) [HZ05]: the “p53 levels in S-phase cells” value in assay [1] was “higher levels of p53 than vehicle treated controls”.
